Laboratory results taken from patent US10499640B2, “Herbicidal compounds” (SYNGENTA PARTICIPATIONS AG, priority 2014, dated 2019).

Assays:
Format in all cases: in vivo
[1] = system: Abutilon theophrasti (ABUTH); experiment: Pre-emergence herbicidal activity, glasshouse pot test; design: key: 5=total damage to plant; 0=no damage to plant; conditions: Rate 1000 g/Ha; sprayed one day after sowing; evaluated after 13 days; scale 0-5
Experimental: (§1) Seeds of a variety of test species were sown in standard soil in pots. After cultivation for one day (pre-emergence) under controlled conditions in a glasshouse (at 24/16° C., day/night; 14 hours light; 65% humidity), the plants were sprayed with an aqueous spray solution derived from the formulation of the technical active ingredient in acetone/water (50:50) solution containing 0.5% Tween 20 (polyoxyethelyene sorbitan monolaurate, CAS RN 9005-64-5). The test plants were then grown in a glasshouse under controlled conditions (at 24/16° C., day/night; 14 hours light; 65% humidity) and watered twice daily. After 13 days, the test was evaluated (5=total damage to plant; 0=no damage to plant).

[2] = system: Alopecurus myosuroides (ALOMY); experiment: as above; design: key: 5=total damage to plant; 0=no damage to plant; conditions: Rate 1000 g/Ha; sprayed one day after sowing; evaluated after 13 days; scale 0-5
Experimental: as §1

[3] = system: Amaranthus retroflexus (AMARE); experiment: as above; design: key: 5=total damage to plant; 0=no damage to plant; conditions: Rate 1000 g/Ha; sprayed one day after sowing; evaluated after 13 days; scale 0-5
Experimental: as §1

[4] = system: Echinochloa crus-galli (ECHCG); experiment: as above; design: key: 5=total damage to plant; 0=no damage to plant; conditions: Rate 1000 g/Ha; sprayed one day after sowing; evaluated after 13 days; scale 0-5
Experimental: as §1

[5] = system: Setaria faberi (SETFA); experiment: as above; design: key: 5=total damage to plant; 0=no damage to plant; conditions: Rate 1000 g/Ha; sprayed one day after sowing; evaluated after 13 days; scale 0-5
Experimental: as §1

[6] = system: Zea mays (ZEAMX); experiment: as above; conditions: Rate 1000 g/Ha; sprayed one day after sowing; evaluated after 13 days; scale 0-5
Experimental: as §1

[7] = system: Abutilon theophrasti (ABUTH); experiment: Post-emergence herbicidal activity, glasshouse pot test; design: key: 5=total damage to plant; 0=no damage to plant; conditions: Rate 1000 g/Ha; sprayed after 8 days cultivation; evaluated after 13 days; scale 0-5
Experimental: (§2) Seeds of a variety of test species were sown in standard soil in pots. After 8 days cultivation (post-emergence) under controlled conditions in a glasshouse (at 24/16° C., day/night; 14 hours light; 65% humidity), the plants were sprayed with an aqueous spray solution derived from the formulation of the technical active ingredient in acetone/water (50:50) solution containing 0.5% Tween 20 (polyoxyethelyene sorbitan monolaurate, CAS RN 9005-64-5). The test plants were then grown in a glasshouse under controlled conditions (at 24/16° C., day/night; 14 hours light; 65% humidity) and watered twice daily. After 13 days, the test was evaluated (5=total damage to plant; 0=no damage to plant).

[8] = system: Alopecurus myosuroides (ALOMY); experiment: as above; design: key: 5=total damage to plant; 0=no damage to plant; conditions: Rate 1000 g/Ha; sprayed after 8 days cultivation; evaluated after 13 days; scale 0-5
Experimental: as §2

[9] = system: Amaranthus retroflexus (AMARE); experiment: as above; design: key: 5=total damage to plant; 0=no damage to plant; conditions: Rate 1000 g/Ha; sprayed after 8 days cultivation; evaluated after 13 days; scale 0-5
Experimental: as §2

[10] = system: Echinochloa crus-galli (ECHCG); experiment: as above; design: key: 5=total damage to plant; 0=no damage to plant; conditions: Rate 1000 g/Ha; sprayed after 8 days cultivation; evaluated after 13 days; scale 0-5
Experimental: as §2

[11] = system: Setaria faberi (SETFA); experiment: as above; design: key: 5=total damage to plant; 0=no damage to plant; conditions: Rate 1000 g/Ha; sprayed after 8 days cultivation; evaluated after 13 days; scale 0-5
Experimental: as §2

[12] = system: Zea mays (ZEAMX); experiment: as above; design: key: 5=total damage to plant; 0=no damage to plant; conditions: Rate 1000 g/Ha; sprayed after 8 days cultivation; evaluated after 13 days; scale 0-5
Experimental: as §2

Row | SMILES | ABUTH damage score, application pre-emergence [1] | ALOMY damage score, application pre-emergence [2] | AMARE damage score, application pre-emergence [3] | ECHCG damage score, application pre-emergence [4] | SETFA damage score, application pre-emergence [5] | ZEAMX damage score, application pre-emergence [6] | ABUTH damage score, application post-emergence [7] | ALOMY damage score, application post-emergence [8] | AMARE damage score, application post-emergence [9] | ECHCG damage score, application post-emergence [10] | SETFA damage score, application post-emergence [11] | ZEAMX damage score, application post-emergence [12]
1 | CON1C(=O)N(c2cc(C(C)(C)F)on2)C(O)C1C (stereo not drawn) [Compound A1, 1-[5-(1-fluoro-1-methyl-ethyl)isoxazol-3-yl]-5-hydroxy-3-methoxy-4-methyl-imidazolidin-2-one] | 5 | 4 | 5 | 4 | 4 | 2 | 5 | 5 | 5 | 5 | 5 | 5
2 | CC1C(O)N(c2cc(C(C)(C)F)on2)C(=O)N1C (stereo not drawn) [Compound A2, 1-[5-(1-fluoro-1-methyl-ethyl)isoxazol-3-yl]-5-hydroxy-3,4-dimethyl-imidazolidin-2-one] | 5 | 4 | 5 | 4 | 4 | 2 | 5 | 5 | 5 | 5 | 5 | 5
3 | CN1CC(O)N(c2cc(C(C)(C)F)on2)C1=O (stereo not drawn) [Compound A3] | 5 | 4 | 5 | 5 | 4 | 2 | 5 | 5 | 5 | 5 | 5 | 5
4 | CN1CC(O)N(c2cc(C(C)(C)C#N)on2)C1=O (stereo not drawn) [Compound A4] | 5 | 4 | 5 | 5 | 5 | 4 | 5 | 5 | 5 | 5 | 5 | 5
5 | CC1C(O)N(c2cc(C(C)(C)C#N)on2)C(=O)N1C (stereo not drawn) [Compound A5] | 5 | 4 | 5 | 5 | 5 | 3 | 5 | 5 | 5 | 5 | 5 | 5
6 | CC1NC(=O)N(c2cc(C(C)(C)C#N)on2)C1O (stereo not drawn) [Compound A7] | 5 | 4 | 5 | 4 | 4 | 2 | 5 | 4 | 5 | 4 | 4 | 3
7 | CC(C)(C#N)c1cc(N2C(=O)NCC2O)no1 (stereo not drawn) [Compound A8] | 5 | 0 | 5 | 1 | 1 | 1 | 5 | 2 | 4 | 3 | 3 | 1
8 | CC(C)(C)c1cc(N2C(=O)N3CCCCC3C2O)no1 (stereo not drawn) [Compound A26] | 5 | 4 | 5 | 4 | 4 | 3 | 5 | 5 | 5 | 5 | 5 | 5
